Data: patent US20030226169A1, “DNA sequences encoding antifungal proteins” (priority 1995, published 2003)
≈ marks a conversion by molar mass, not a printed value. Where two headings read alike, the source gives them in different places. Residues, ends and D or L forms follow the SMILES beside them.

Assays:
[1] = test system: F culmorum; experiment: Antifungal activity of combinations of Rs-AFP and 15-mer peptides; format: cell-based, Fusarium culmorum; details: 100 x MIC of Rs-AFP2 / MIC of Rs-AFP2/peptide combination; 15-mer peptide added at 20 μg/ml; SMF medium; BSA-coated plates; Rs-AFP2 alone = 100
Procedure: The 15-mer peptides were tested for their ability to affect the antifungal activity of the Rs-AFP2 protein (SEQ ID NO: 35). Each peptide was added at a subinhibitory concentration (20 μg/ml ) to a twofold dilution series of Rs-AFP2 (SEQ ID NO: 35) ranging from 20 μg/ml down to 0.15 μg/ml. In the control series only water was added.
The target fungus was F culmorum and the growth medium was SMF. In order to exclude the effect of differential binding of the peptides to the microplate wells, the plates were coated with bovine serum albumin. […] The relative specific activity is defined as one hundred times the MIC of Rs-AFP2 divided by the MIC of the Rs-AFP2/peptide combination. Data are based on duplicate tests.

[2] = test system: Fusarium culmorum (IMI 180420); experiment: Antifungal growth inhibition microplate assay (photospectrometry); format: cell-based; details: ½ PDB; for F CULMORUM IC: Table 6 / FIG. 8: Rs-AFP1-based 9-mer split peptides
Procedure: (§1) The following fungal strains were used: Alternaria brassicicola (MUCL 20297), Ascophyta pisi (MUCL 30164), Botrytis cinerea (MUCL 30158), Fusarium culmorum (IMI 180420) and Verticillium dahliae (MUCL 19210).
(§2) Fungi were grown on six cereal agar plates at room temperature and under white fluorescent light except for F culmorum and V dahliae which were grown in the dark. The duration of the spore harvest varied between 10 and 25 days depending on the strain. Spores were collected as follows. Five to ten ml of sterile milli-Q water was poured into each dish and the surface of the agar was rubbed with a sterile spatula to obtain a suspension containing mycelium and spores. This suspension was filtered through a sterile glasswool-plugged funnel and the filtrate containing the spores was collected in a sterile polypropylene centrifuge tube. The A brassicicola spores were suspended in sterile 0.1 Tween 20 (Merk, 822184) due to their hydrophobic nature. The spore suspensions were then washed twice by centrifugation at 2,400×g for 15 minutes and resuspended in a small volume of steril milli-Q water. The spore density was determined in a counting chamber and then adjusted to 4×10^7 spores per ml. Aliquots of the spore suspension were transferred to sterile microtubes and an equal volume of sterile 50% glycerol (Merck, 4091) was added to each tube so that a final spore suspension of 2×10^7 spores per ml in 25% glycerol was obtained. After careful mixing of the stock, the spore suspension was transferred in 100 μl aliquots to sterile microtubes and stored at −80° C.
(§3) Antifungal activity was measured by photospectrometry as described by Broekaert et al, (1990, FEMS Microbiol Lett, 69:55-60). Tests were performed by adding 20 μl of test solution and 80 μl of a fungal spore suspension (2×10^4 spores/ml) per well in a sterile flat-bottom 96-well microtiterplate. The spore suspension was prepared by diluting the stock spore suspension ([…] in 25% glycerol) 1:1000 in half-strength potato dextrose broth. A positive growth control consisting of eight wells containing 20 μl of sterile milli-Q water and 80 μl of the fungal spore suspension was included in each test. The microtiterplates were incubated (with the lid on) in an aerated place at room temperature and under conditions of darkness for all test organisms.
(§4) After 30 minutes of incubation (when the spores are settled on the well bottom) the optical density was measured in a microplate reader (Bio Rad 3550-UV) at 595 nm. Incubation of the microtiterplates continued until the optical density of the control microculture was between 0.250 and 0.500, which took approximately 72 hours (96 hours for V dahliae). Percentage of growth inhibition (% GI) was estimated as 100 times the ratio of the corrected absorbance of the control microculture minus the corrected absorbance of the test microculture over the corrected absorbance of the control microculture at 595 nm. The corrected absorbance values equal the absorbance at 595 nm of the culture measured after 72 or 96 hours minus the absorbance at 595 nm measured after 30 minutes.
(§5) % GI=[(Acontrol−Atest/Acontrol]×100
(§6) where Acontrol=(A72/96h−A30min)control
(§7) The IC50 value is defined as the concentration that gives a 50% growth inhibition after 72 or 96 hours of incubation. The minimum inhibitory concentration (MIC) corresponds to the minimum concentration that gives 100% growth inhibition after 72 or 96 hours incubation.

[3] = test system: Ascophyta pisi (MUCL 30164); format: cell-based; details: for A PISI IC: the source numbers peptides by N-terminal amino acid
Procedure: as §1, §2, §3, §4, §5, §6, §7

[4] = Table 4 / FIG. 6: Rs-AFP2-based 12-mer split peptides, the source numbers peptides by N-terminal amino acid
[5] = Table 4: Rs-AFP2-based 12-mer split peptides, triplicate
[6] = Table 7 / FIG. 8: Rs-AFP1-based 12-mer split peptides, the source numbers peptides by N-terminal amino acid
[7] = Table 7: Rs-AFP1-based 12-mer split peptides
[8] = Table 7: Rs-AFP1-based 12-mer split peptides, ½ PDB
[9] = Table 3 / FIG. 6: Rs-AFP2-based 9-mer split peptides, the source numbers peptides by N-terminal amino acid
[10] = Table 3: Rs-AFP2-based 9-mer split peptides, duplicate
[11] = the source numbers peptides by N-terminal amino acid
[12] = Table 6: Rs-AFP1-based 9-mer split peptides
[13] = Table 6: Rs-AFP1-based 9-mer split peptides, ½ PDB

Row | Compound | IC50 [2, 4] [µg/mL] | MIC [2, 5] [µg/mL] | F CULMORUM IC50 [2, 6] [µg/mL] | F CULMORUM MIC [2, 7] [µg/mL] | A PISI IC50 [3, 8] [µg/mL] | A PISI MIC [3, 8] [µg/mL] | IC50 [2, 9] [µg/mL] | MIC [2, 10] [µg/mL] | F CULMORUM IC [2, 11] [µg/mL] | F CULMORUM MIC [2, 12] [µg/mL] | A PISI MIC [3, 13] [µg/mL] | A PISI IC [3, 13] [µg/mL] | also measured
1 | Ac-QRPSGTWSGVCGNNN-NH2 (N-terminus and C-terminus assumed) [Peptide 2 (Rs-AFP2 15-mer)] |  |  |  |  |  |  |  |  |  |  |  |  | Relative Specific Antifungal Activity [1]: 120
2 | CC(=O)NCC(=O)N[C@@H](CO)C(=O)N[C@@H](CS)C(=O)N[C@@H](CC(N)=O)C(=O)N[C@@H](Cc1ccc(O)cc1)C(=O)N[C@H](C(=O)N[C@@H](Cc1ccccc1)C(=O)N1CCC[C@H]1C(=O)N[C@@H](C)C(=O)N[C@@H](Cc1c[nH]cn1)C(=O)N[C@@H](CCCCN)C(=O)N[C@@H](CS)C(N)=O)C(C)C [compound 123] (Ac-GSCNYVFPAHKC-NH2) | 280 (≈ 205 µM) | 300 (≈ 220 µM) | 266 | 300 | 349 | >400 |  |  |  |  |  |  | 
3 | CC[C@H](C)[C@H](NC(=O)[C@H](CS)NC(=O)[C@H](CCCCN)NC(=O)[C@H](Cc1c[nH]cn1)NC(=O)[C@H](C)NC(C)=O)C(=O)N[C@@H](CS)C(=O)N[C@@H](Cc1ccc(O)cc1)C(=O)N[C@@H](Cc1ccccc1)C(=O)N1CCC[C@H]1C(N)=O [compound 88] (Ac-AHKCICYFP-NH2) |  |  |  |  |  |  | 35 (≈ 31.2 µM) | 50 (≈ 44.5 µM) | 21 | 37.5 | 25 | 18 | 
4 | Ac-LEKARHGSCNYV-NH2 [compound 117] | 327 | >400 | 347 | 400 | 293 | 400 |  |  |  |  |  |  | 
5 | CC[C@H](C)[C@H](NC(=O)[C@H](CS)NC(=O)[C@H](CCCCN)NC(=O)[C@H](Cc1c[nH]cn1)NC(=O)[C@H](C)NC(=O)[C@@H]1CCCN1C(=O)[C@H](Cc1ccccc1)NC(=O)[C@@H](NC(=O)[C@H](Cc1ccc(O)cc1)NC(C)=O)C(C)C)C(=O)N[C@@H](CS)C(=O)N[C@@H](Cc1ccc(O)cc1)C(=O)N[C@@H](Cc1ccccc1)C(N)=O [compound 127] (Ac-YVFPAHKCICYF-NH2) |  |  | 354 | >400 | 302 | 400 |  |  |  |  |  |  | 
6 | CC[C@H](C)[C@H](NC(=O)[C@H](CS)NC(=O)[C@H](CCCCN)NC(=O)[C@H](Cc1c[nH]cn1)NC(=O)[C@H](C)NC(=O)[C@@H]1CCCN1C(=O)[C@H](Cc1ccccc1)NC(C)=O)C(=O)N[C@@H](CS)C(=O)N[C@@H](Cc1ccc(O)cc1)C(N)=O [compound 86] (Ac-FPAHKCICY-NH2) |  |  |  |  |  |  | 144 (≈ 128 µM) | 400 (≈ 356 µM) | 196 | 250 | 200 | 80 | 
7 | CC[C@H](C)[C@H](NC(=O)[C@H](CS)NC(=O)[C@H](CCC(N)=O)NC(=O)[C@H](CC(N)=O)NC(=O)[C@H](CCCCN)NC(=O)[C@H](CS)NC(=O)[C@H](C)NC(=O)[C@H](CC(N)=O)NC(=O)[C@H](CC(N)=O)NC(=O)[C@H](CC(N)=O)NC(C)=O)C(=O)N[C@@H](CCCNC(=N)N)C(=O)N[C@@H](CC(C)C)C(=O)N[C@@H](CCC(=O)O)C(=O)N[C@@H](CCCCN)C(=O)N[C@@H](C)C(N)=O [Peptide 5 (Rs-AFP2 15-mer)] (Ac-NNNACKNQCIRLEKA-NH2; N-terminus and C-terminus assumed) |  |  |  |  |  |  |  |  |  |  |  |  | Relative Specific Antifungal Activity [1]: 180
8 | CC[C@H](C)[C@H](NC(=O)[C@H](CS)NC(=O)[C@H](CCCCN)NC(=O)[C@H](Cc1c[nH]cn1)NC(=O)[C@H](C)NC(=O)[C@@H]1CCCN1C(=O)[C@H](Cc1ccccc1)NC(=O)[C@@H](NC(C)=O)C(C)C)C(=O)N[C@@H](CS)C(N)=O [compound 85] (Ac-VFPAHKCIC-NH2) |  |  |  |  |  |  | 121 (≈ 114 µM) | 200 (≈ 189 µM) | 121 | 200 | 400 | 184 | 
9 | CC[C@H](C)[C@H](NC(=O)[C@H](CS)NC(=O)[C@H](CCCCN)NC(=O)[C@H](Cc1c[nH]cn1)NC(=O)[C@H](C)NC(=O)[C@@H]1CCCN1C(=O)[C@H](Cc1ccccc1)NC(=O)[C@@H](NC(=O)[C@H](Cc1ccc(O)cc1)NC(=O)[C@H](CC(N)=O)NC(C)=O)C(C)C)C(=O)N[C@@H](CS)C(=O)N[C@@H](Cc1ccc(O)cc1)C(N)=O [compound 126] (Ac-NYVFPAHKCICY-NH2) | 201 (≈ 134 µM) | 300 (≈ 200 µM) | 189 | 300 | 298 | 400 |  |  |  |  |  |  | 
10 | Ac-HGSCNYVFPAHK-NH2 [compound 122] | 30 | 50 | 35 | 50 | 74 | 100 |  |  |  |  |  |  | 
11 | CC(=O)N[C@@H](CCC(N)=O)C(=O)N[C@@H](CCCCN)C(=O)N[C@@H](CC(C)C)C(=O)N[C@@H](CS)C(=O)N[C@@H](CCC(N)=O)C(=O)N[C@@H](CCCNC(=N)N)C(=O)N1CCC[C@H]1C(=O)N[C@@H](CO)C(=O)NCC(=O)N[C@H](C(=O)N[C@@H](Cc1c[nH]c2ccccc12)C(=O)N[C@@H](CO)C(=O)NCC(=O)N[C@H](C(=O)N[C@@H](CS)C(N)=O)C(C)C)[C@@H](C)O [Peptide 1 (Rs-AFP2 15-mer)] (Ac-QKLCQRPSGTWSGVC-NH2; N-terminus and C-terminus assumed) |  |  |  |  |  |  |  |  |  |  |  |  | Relative Specific Antifungal Activity [1]: 310
12 | CC[C@H](C)[C@H](NC(=O)[C@H](CS)NC(=O)[C@H](CCCCN)NC(=O)[C@H](Cc1c[nH]cn1)NC(=O)[C@H](C)NC(=O)[C@@H]1CCCN1C(=O)[C@H](Cc1ccccc1)NC(=O)[C@@H](NC(=O)[C@H](Cc1ccc(O)cc1)NC(=O)[C@H](CC(N)=O)NC(=O)[C@H](CS)NC(=O)[C@H](CO)NC(C)=O)C(C)C)C(N)=O [compound 124] (Ac-SCNYVFPAHKCI-NH2) | 135 (≈ 94.9 µM) | 200 (≈ 141 µM) | 213 | 300 | 318 | >400 |  |  |  |  |  |  | 
13 | Ac-CNYVFPAHK-NH2 [compound 82] |  |  |  |  |  |  | 77 | 100 | 113 | 150 | 400 | 265 | 
14 | CC[C@H](C)[C@H](NC(=O)[C@H](CS)NC(=O)[C@H](CCCCN)NC(C)=O)C(=O)N[C@@H](CS)C(=O)N[C@@H](Cc1ccc(O)cc1)C(=O)N[C@@H](Cc1ccccc1)C(N)=O [compound 44] (Ac-KCICYF-NH2) |  |  |  |  |  |  |  |  |  |  |  |  | F CULMORUM IC50 ([2]; Table 5 / FIG. 8: Rs-AFP1-based 6-mer split peptides): 376 µg/mL; F CULMORUM MIC ([2]; Table 5: Rs-AFP1-based 6-mer split peptides): >400 tg/ml; A PISI IC50 [3]: 400 µg/mL; A PISI MIC [3]: >400 µg/mL
15 | Ac-ARHGSCNYV-NH2 [compound 77] |  |  |  |  |  |  | 189 | 300 | 193 | 300 | 200 | 143 | 
